Source: US6413975B1, “Purine derivatives having phosphodiesterase iv inhibition activity” (Euro-Celtique, S.A., priority 1999, dated 2002)
Counter-ions that a name gives are not always drawn.

tested on: Type IV PDE; assay: PDE IV inhibition: hydrolysis of [3H]-cyclic AMP by isolated Type IV PDE; format: biochemical, bovine; conditions: adenines, Table 4; cyclic AMP 0.2 μM; read-out: calc PDE IV IC50
Description: The Type IV PDE is isolated from bovine tracheal smooth muscle using a procedure similar to that previously described by Silver, P. J., Hamel, L. T., Perrone, M. H. Bentley, R. G. Bushover, C. R., Evans, D. B.: Eur. J. Pharmacol. 150:85,1988.(1). Briefly, smooth muscle from bovine trachea is minced and homogenized using a polytron in 10 volumes of an extraction buffer containinhg 10 mM Tris-acetate (pH 7.5), 2 mM magnesium chloride, 1 mM dithiothreitol and 2,000 units/ml of aprotinin. This and all subsequent procedures are performed at 0-4° C. The homogenate is sonicated and then centrifiged at 48,000×g for 30 minutes. The resulting supernatant is applied to a DEAE Trisacryl M column previously equilibrated with sodium acetate and dithiothreitol. After applications of the sample, the column is washed with sodium acetate/dithiothreitol, after which the different forms of PDE are eluted from the column using a linear Tris-HCl/NaCl gradient. Fractions containing Type IV PDE are collected, dialyzed and concentrated to 14% of the original volume. The concentrated fractions are diluted to 50% with ethylene glycol and stored at -20° C.
Enzyme activity is assessed by measuring the hydrolysis of [^3H]-cyclic AMP, as described by Thompson, W. J., Teraski, W. L., Epstein, P. N., Strada, S. J.: Adv. Cyclic Nucleotide Res. 10:69, 1979. The cyclic AMP concentration used in this assay is 0.2 μM, which approximates the Km value. Protein concentration is adjusted to ensure that no more than 15% of the available substrate is hydrolyzed during the incubation period.
All test compounds are dissolved in dimethyl sulfoxide (final concentration of 2.5%). This concentration of dimethyl sulfoxide inhibits enzyme activity by approximately 10%.

IC50 | Compound
4.52 µM | CCNc1ncn(CC)c2nc(Cc3ccc(OC)c(OC4CCCC4)c3)nc1-2 [8-(3-Cyclopentyloxy-4-methoxybenzyl)-3-ethyl-6-ethylamino-3H-purine Hydrochloride]
6.31 µM | CCCn1cnc(NCC)c2nc(C3CC3)nc1-2 [8-cyclopropyl-6-ethylamino-3-propyl-3H-purine hydrochloride]

The remaining lines, values behind:

Compound | IC50
CCCCCCn1cnc(NC)c2ncnc1-2 [3-hexyl-6-methylamino-3H-purine hydrochloride] | 34.1 µM
CCCCn1cnc(NCC)c2nc(C3CC3)nc1-2 [3-butyl-8-cyclopropyl-6-ethylamino-3H-purine hydrochloride] | 5.99 µM
CCNc1ncn(CC2CCCCC2)c2nc(C3CC3)nc1-2 [3-cyclohexylmethyl-8-cyclopropyl-6-ethylamino-3H-purine hydrochloride] | 3.78 µM
CCNc1ncn(CC2CC2)c2nc(C(C)C)nc1-2 [3-cyclopropylmethyl-8-isopropyl-6-ethylamino-3H-purine hydrochloride] | 12.7 µM
CCNc1ncn(CC2CCCCC2)c2ncnc1-2 [3-cyclohexylmethyl-6-ethylamino-3H-purine hydrochloride] | 33 µM
CCNc1ncn(CC)c2nc(C(C)C)nc1-2 [3-ethyl-8-isopropyl-6-ethylamino-3H-purine hydrochloride] | 52.2 µM

same assay, conditions: adenines, Table 7; read-out: calc PDE IV IC50

IC50 | Compound
6.5 µM | CCNc1ncn(Cc2ccc(OC)c(O)c2)c2nc(C(C)(C)O)nc1-2 [6-ethylamino-3-[(3-hydroxy-4-methoxy)benzyl]-8-[(1-hydroxy-1-methyl)ethyl]- -3H-purine]
0.31 µM | CCNc1nc(Cc2ccc(OC)c(OC)c2)[nH]c2nc(C(C)C)nc1-2 [6-ethylamino-2-(3,4-dimethoxybenzyl)-8-isopropyl-3H-purine]
23.2 µM | CC(C)c1nc2c(N)ncn(CC3CCCC3)c-2n1 [6-amino-3-cyclopentylmethyl-8-isopropyl-3H-purine]
1.2 µM | CCNc1ncn(Cc2ccc(OC)cc2)c2nc(C(C)C)nc1-2 [6-ethylamino-8-isopropyl-3-(4-methoxybenzyl)-3H-purine]
0.25 µM | COc1ccc(Cn2cnc(N)c3nc(C(C)(C)O)nc2-3)cc1OC1CCCC1 [6-amino-3-[(3-cyclopentyloxy-4-methoxy)benzyl]-8-[(1-hydroxy-1-methyl)ethyl]-3H-purine]

The next lines start with the compound.

Compound | IC50
COc1ccc(Cn2cnc(N)c3nc(C(C)C)nc2-3)cc1OC [6-amino-3-(3,4-dimethoxybenzyl)-8-isopropyl-3H-purine] | 0.92 µM
CCNc1ncn(Cc2ccc(OC)c(OC3CCCC3)c2)c2nc(C(C)(C)O)nc1-2 [3-[(3-cyclopentyloxy-4-methoxy)benzyl]-8-[(1-methyl-1-hydrox] [3-[(3-cyclopentyloxy-4-methoxy)benzyl]-8-[(1-methyl-1-hydroxy)ethyl]-6-ethylamino-3H-purine] | 3.1 µM
COc1ccc(Cn2cnc(N)c3nc(C(C)(C)OCc4ccccc4)nc2-3)cc1OC [6-Amino-8-(1-benzyloxy-1-methyl-ethyl)-3-(34-dimethoxybenzyl)-3H-purine Hydrochloride] | 0.94 µM
COc1ccc(Cn2cnc(N(C)C)c3nc(C(C)C)nc2-3)cc1OC1CCCC1 [3-(3-cyclopentyloxy-4-methoxybenzyl)-6-dimethylamino-8-isopropyl-3H-purine] | 19.3 µM
CCNc1ncn(CCc2ccc(Cl)cc2)c2nc(C(C)C)nc1-2 [3-{2-(4-chlorophenyl)-ethyl]-6-ethylamino-8-isopropyl-3H-purine] | 4.46 µM
COc1ccc(Cn2cnc(N)c3nc(C(C)(C)OCc4ccc(F)cc4)nc2-3)cc1OC [6-Amino-3-(3,4-dimethoxybenzyl)-8-(1-(4-fluorobenzyloxy-1-methyl-ethyl)-3H-purine Hydrochloride] | 1.85 µM
CC(C)c1nc2c(NC3CCCC3)ncn(Cc3ccc(Cl)cc3)c-2n1 [3-(4-chlorobenzyl)-6-cyclopentylamino-8-isopropyl-3H-purine] | 4.7 µM
CC(C)c1nc2c(N)ncn(Cc3ccc4c(c3)OCO4)c-2n1 [6-amino-3(3,4-methylenedioxybenzyl)-8-isopropyl-3H-purine] | 4.1 µM
COc1ccc(Cn2cnc(NCC(F)(F)F)c3nc(C(C)C)nc2-3)cc1OC1CCCC1 [3-(3-cyclopentyloxy-4-methoxybenzyl)-6-((2,2,2-trifluoroethyl)amino)-8-isopropyl-3H-purine] | 12.8 µM
CC(C)(OCc1ccc(F)cc1)c1nc2c(N)ncn(Cc3ccc4c(c3)OCO4)c-2n1 [6-amino-3-(3,4-methylenedioxybenzyl)-8-[1-(4-fluorobenzyloxy)-1-methyl-ethyl]-3H-purine] | 0.72 µM
COc1ccc(Cn2cnc(N)c3nc(C(C)(C)O)nc2-3)cc1OCCCCO [6-amino-3-[3-(4-hydroxybutoxy-4-methoxy)benzyl]-8-(1-hydroxy-1-methylethyl)-3H-purine hydrochloride] | 17.1 µM
COc1ccc(Cn2cnc(N)c3nc(C(C)C)nc2-3)cc1O [6-amino-3-(3-hydroxy-4-methoxy)-benzyl)-8-isopropyl-3H-purine] | 15.1 µM
COc1ccc(CNc2ncn(Cc3ccc(OC)c(OC4CCCC4)c3)c3nc(C(C)C)nc2-3)cc1OC1CCCC1 [3-(3-cyclopentyloxy-4-methoxybenzyl)-6-(3-cyclopentyloxy-4-methoxybenzylamino)-8-isopropyl-3H-purine] | 1.14 µM
C=C(C)c1nc2c(N)ncn(Cc3ccc(OC)c(OC)c3)c-2n1 [6-Amino-3-(3,4-dimethyoxybenzyl)-8-(1-methylethenyl)-3H-purine] | 3.7 µM
C=C(C)c1nc2c(N)ncn(Cc3ccc(OC)c(OC4CCCC4)c3)c-2n1 [6-Amino-3-(3-cyclopentyloxy-4-methoxy-benzyl)-8-(1-methylethenyl)-3H-purine] | 0.091 µM
CCNc1ncn(Cc2ccc(OC)c(OCc3ccccc3)c2)c2nc(C(C)C)nc1-2 [3-(3-benzyloxy-4-methoxy-benzyl)-6-ethylamino-8-isopropyl-3H-purine] | 1.3 µM
COc1ccc(Cn2cncc3nc(C(C)(C)O)nc2-3)cc1OC1CCC(O)C1 (centres unmarked) [3-[3-(3-Hydroxy-cyclopentyloxy)-4-methoxy-benzyl]-8-(1-hydroxy-1-methyl-ethyl)-3H-purine] | 2.25 µM
CCNc1ncn(Cc2ccc(OC)c(OC3CCC(O)C3)c2)c2nc(C(C)(C)O)nc1-2 (centres unmarked) [6-Ethylamino-3-[3-(3-hydroxycyclopentyloxy)-4-methoxybenzyl)]-8-(1-hydroxy-1-methylethyl)-3H-purine] | 2.6 µM
CCNc1ncn(Cc2ccc(OC)c(OCCN(C)C)c2)c2nc(C(C)C)nc1-2 [6-Ethylamino-3-[3-(2,2-dimethylaminoethoxy-4-methoxy)]-8-isopropyl-3H-purine] | 8.95 µM

same assay, conditions: dithioxanthines, Table 5; read-out: IC50 PDE IV

IC50 | Compound
2.27 µM | S=c1[nH]c(=S)n(CC2CC2)c2nc(C3CC3)[nH]c12 [8-cyclopropyl-3-cyclopropylmethyl-3,7-dihydro-2,6-dithio-1H-purine-2,6-dione]
6.18 µM | CCn1c(=S)[nH]c(=S)c2[nH]c(C3CC3)nc21 [8-cyclopropyl-3,7-dihydro-3-ethyl-2,6-dithio-1H-purine-2,6-dione]

The next lines start with the compound.

Compound | IC50
COc1ccc(Cn2c(=S)[nH]c(=S)c3[nH]cnc32)cc1OC1CCCC1 [3-(3-cyclopentyloxy-4-methoxybenzyl)-3,7-dihydro-2,6-dithio-1H-purine-2,6-dione] | 16.2 µM
CCCCn1c(=S)[nH]c(=S)c2[nH]c(C3CC3)nc21 [3-butyl-8-cyclopropyl-3,7-dihydro-2,6-dithio-1H-purine-2,6-dione] | 9.43 µM

same assay, conditions: read-out: PDE IV I50

Compound | IC50
CCCn1cnc(NC2CCCC2)c2nc(C3CC3)nc1-2 [6-Cyclopentylamino-8-cyclopropyl-3-propyl-3H-purine Hydrochloride] | 0.03 µM
CCCn1c(=S)nc(NCc2ccncc2)c2[nH]c(C3CC3)nc21 [8-cyclopropyl-3,7-dihydro-3-propyl-6-(4-pyridyl-methylamino)-2-thio-2H-purin-2-one] | 0.41 µM
CC(C)c1nc2c([nH]1)c(=S)[nH]c(=S)n2Cc1ccccc1 [3-benzyl-3,7-dihydro-8-(1-methylethyl)-2,6-dithio-1H-purine-2,6-dione] | 3.4 µM

same assay, conditions: thioisoguanines, Table 2; cyclic AMP 0.2 μM; read-out: Calc IC50 PDE IV

Compound | IC50
CCNc1nc(=S)n(CC)c2nc(C3CC3)[nH]c12 [8-cyclopropyl-3-ethyl-6-ethylamino-3,7-dihydro-2-thio-2H-purin-2-one] | 13.7 µM
CCCNc1nc(=S)n(CC)c2nc(C3CC3)[nH]c12 [8-cyclopropyl-3-ethyl-6-propylamino-2-thio-2H-purin-2-one] | 8.48 µM
CCn1c(=S)nc(NC2CCCC2)c2[nH]c(C3CC3)nc21 [3-ethyl-6-cyclopentylamino-8-cyclopropyl-3,7-dihydro-2-thio-2H-purin-2-one] | 0.19 µM
CCCn1c(=S)nc(NCc2ccccc2)c2[nH]c(C3CC3)nc21 [6-benzylamino-8-(cyclopropyl)-3,7-dihydro-3-propyl-2-thio-2H-purin-2-one hydrochloride] | 33.6 µM
CCCn1c(=S)nc(N)c2[nH]c(C3CC3)nc21 [6-amino-8-cyclopropyl-3,7-dihydro-3 propyl-2-thio-2H-purin-2-one] | 39.4 µM
